Experimental findings from patent US20260055079A1, “PHTHALAZINONE COMPOUNDS AS PARP7 INHIBITORS” (AZKARRA THERAPEUTICS, INC., priority 2022, published 2026) are described below.

SMILES strings stand for the structures.

Chain of His-GST-PARP7 (Q7Z3E1 whole entry): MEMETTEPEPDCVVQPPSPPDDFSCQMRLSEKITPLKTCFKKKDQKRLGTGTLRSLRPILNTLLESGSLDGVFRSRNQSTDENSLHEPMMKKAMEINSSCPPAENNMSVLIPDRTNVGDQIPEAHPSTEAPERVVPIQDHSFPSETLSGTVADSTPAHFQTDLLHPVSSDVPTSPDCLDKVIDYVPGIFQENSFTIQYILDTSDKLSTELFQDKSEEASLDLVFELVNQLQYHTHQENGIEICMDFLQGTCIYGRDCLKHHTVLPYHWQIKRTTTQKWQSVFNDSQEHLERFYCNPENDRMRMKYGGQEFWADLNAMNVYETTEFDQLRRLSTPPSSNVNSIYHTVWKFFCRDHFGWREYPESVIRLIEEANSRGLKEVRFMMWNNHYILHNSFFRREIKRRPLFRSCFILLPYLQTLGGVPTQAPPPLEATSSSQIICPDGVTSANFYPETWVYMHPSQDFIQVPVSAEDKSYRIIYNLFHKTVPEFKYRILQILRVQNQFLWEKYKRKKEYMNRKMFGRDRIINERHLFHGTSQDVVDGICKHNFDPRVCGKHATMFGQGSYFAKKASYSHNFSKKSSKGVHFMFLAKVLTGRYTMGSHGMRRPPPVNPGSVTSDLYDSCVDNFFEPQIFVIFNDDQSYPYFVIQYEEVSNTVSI

This assay addresses His-GST-PARP7 (Homo sapiens (Human), UniProt Q7Z3E1). As to the kind of experiment: PARP7 biochemical assay. Conditions: read-out: PARP7 IC50.
The IC50 is the point on the concentration scale where inhibition reaches its midpoint. Regarding `N#Cc1ccc(N2CCN(C(=O)c3cc(Cc4n[nH]c(=O)c5ccc(CC(F)(F)F)cc45)ccc3F)CC2)nc1` [Example 183, 6-(4-(2-Fluoro-5-((4-oxo-7-(2,2,2-trifluoroethyl)-3,4-dihydrophthalazin-1-yl)methyl)benzoyl)piperazin-1-yl)nicotinonitrile], the IC50 is < 50 nM.
As for `CN(C(=O)C1CCO1)C1CN(C(=O)c2cc(Cc3n[nH]c(=O)c4ccc(OC5CCC5)cc34)ccc2F)C1` (centres unmarked) [Example 122, N-(1-(5-((7-cyclobutoxy-4-oxo-3,4-dihydrophthalazin-1-yl)methyl)-2-fluorobenzoyl)azetidin-3-yl)-N-methyloxetane-2-carboxamide], the figure is 500 to 2000 nM.
Consider `O=C(c1cccc(Cc2n[nH]c(=O)c3ccc(OC4CCC4)cc23)c1Cl)N1CCN(c2ncc(C(F)(F)F)cn2)CC1` [Example 171, 4-(2-Chloro-3-(4-(5-(trifluoromethyl)pyrimidin-2-yl)piperazine-1-carbonyl)benzyl)-6-cyclobutoxyphthalazin-1(2H)-one], for which the IC50 lay within 50 to 100 nM.
Consider `CC#Cc1ccc2c(=O)[nH]nc(Cc3ccc(F)c(C#N)c3)c2c1` [Example 76, 2-Fluoro-5-((4-oxo-7-(prop-1-yn-1-yl)-3,4-dihydrophthalazin-1-yl)methyl)benzonitrile], for which the IC50 was > 2000 nM.
On to `O=C(c1cc(Cl)cc(Cc2n[nH]c(=O)c3ccc(OC4CCC4)cc23)c1)N1CCN(c2ncc(C(F)(F)F)cn2)CC1` [Example 174, 4-(3-chloro-5-(4-(5-(trifluoromethyl)pyrimidin-2-yl)piperazine-1-carbonyl)benzyl)-6-cyclobutoxyphthalazin-1(2H)-one], for which the IC50 is < 50 nM.
Consider `O=C(c1cc(Cc2n[nH]c(=O)c3ccc(OC4CCC4)cc23)ccc1F)N1CCC2C1CCN2c1ncc(C(F)(F)F)cn1` (centres unmarked) [Example 103, 6-Cyclobutoxy-4-(4-fluoro-3-(4-(5-(trifluoromethyl)pyrimidin-2-yl)octahydropyrrolo[3,2-b]pyrrole-1-carbonyl)benzyl)phthalazin-1(2H)-one], for which the IC50 lay in the range of 50 to 100 nM.
Consider `CN(C(=O)CC#N)C1CN(C(=O)c2cc(Cc3n[nH]c(=O)c4ccc(OC5CCC5)cc34)ccc2F)C1` [Example 118, 2-Cyano-N-(1-(5-((7-cyclobutoxy-4-oxo-3,4-dihydrophthalazin-1-yl)methyl)-2-fluorobenzoyl)azetidin-3-yl)-N-methylacetamide], for which the IC50 lay in the range of 500 to 2000 nM.
For the compound `O=C(NC1CN(C(=O)C2CC2)C1)c1cc(Cc2n[nH]c(=O)c3ccc(OC4CCC4)cc23)ccc1F` [Example 203, 5-((7-Cyclobutoxy-4-oxo-3,4-dihydrophthalazin-1-yl)methyl)-N-(1-(cyclopropanecarbonyl)azetidin-3-yl)-2-fluorobenzamide], the IC50 was 100 to 500 nM.
As for `O=c1[nH]nc(Cc2cccc3c(N4CCN(c5ncc(C(F)(F)F)cn5)CC4)noc23)c2cc(OC3CCC3)ccc12` [Example 207, 6-Cyclobutoxy-4-((3-(4-(5-(trifluoromethyl)pyrimidin-2-yl)piperazin-1-yl)benzo[d]isoxazol-7-yl)methyl)phthalazin-1(2H)-one], the figure is > 2000 nM; as for `CC#Cc1ccc2c(=O)[nH]nc(Cc3ccc(F)c(C(=O)N(C)Cc4nnc(C(F)(F)F)o4)c3)c2c1` [Example 202, 2-Fluoro-N-methyl-5-((4-oxo-7-(prop-1-ynyl)-3,4-dihydrophthalazin-1-yl)methyl)-N-((5-(trifluoromethyl)-1,3,4-oxadiazol-2-yl)methyl)benzamide], 100 to 500 nM.
As for `O=c1[nH]nc(Cc2ccc3onc(N4CCN(c5ncc(C(F)(F)F)cn5)CC4)c3c2)c2cc(OC3CCC3)ccc12` [Example 209, 6-Cyclobutoxy-4-((3-(4-(5-(trifluoromethyl)pyrimidin-2-yl)piperazin-1-yl)benzo[d]isoxazol-5-yl)methyl)phthalazin-1(2H)-one], the figure is > 2000 nM.
